Source: article PMC8725909, “1,3,4-Oxadiazole-naphthalene hybrids as potential VEGFR-2 inhibitors: design, synthesis, antiproliferative activity, apoptotic effect, and in silico studies” (Journal of Enzyme Inhibition and Medicinal Chemistry, 2021)
Values joined by “and” are separate entries in the source; they are usually repeats but may differ in a detail not shown here. Identical values can stand only once. Like-named read-outs stand apart in the source and are kept apart here.

Experiments:
[1] = test system: MCF-7 (human breast cancer cell line); assay: MTT cytotoxicity assay, MCF-7; type: cell-based
Procedure: (§1) MTT assay was used to assess the cytotoxic activities of the synthesised compounds against MCF-7 (human breast cancer cell line) and HepG2 (human hepatocellular carcinoma cell line).
(§2) The MCF-7, HepG2, and THLE-2 cell lines were purchased from the American Type Culture Collection (ATCC, Rockville, MD, USA). MCF-7 and HepG2 cells were grown in a medium that contains Roswell Park Memorial Institute (RPMI) 1640 with L-glutamine, 10% foetal bovine serum (FBS), streptomycin (100 μg/ml) and penicillin (100 U/ml). While THLE-2 cells were cultivated in Bronchial Epithelial Growth Media (BEGM) with 10% FBS, 5 ng/ml EGF, and 70 ng/ml phosphoethanolamine. All cells were maintained in a humidified incubator and 5% (v/v) CO2 atmosphere at 37 °C[60].
(§3) The MCF-7, HepG2, and THLE-2 cells were tested for cytotoxicity using the 3–(4, 5-dimethylthiazol-2-yl)-2,5-diphenyltetrazolium bromide (MTT) assay. The ability of living cells to reduce the yellow product MTT to a blue product, formazan, via a reduction reaction that occurs in the mitochondria is used to assess cell population growth. In this assay, 5000 cells/well were plated in a 96-well plate and allowed to grow for 24 h before being treated with over-mentioned suitable media containing increased concentrations of tested compounds (0, 0.1, 1, 10, 100, and 1000 µM). Each experiment was conducted in triplicate. After removing the media, 100 µL of MTT was added to each well and incubated for 4 h. Following that, 100 µL of dimethyl sulfoxide (DMSO) solution was added to solubilise the resulting formazan product, and absorbance at 570 nm was measured using an ELISA microplate reader (Epoc-2 C micro-plate reader, Bio Tek, VT, USA). The IC50 values [the concentration required to inhibit cell viability by 50%] were calculated.

[2] = test system: HepG2 (human hepatocellular carcinoma cell line); assay: MTT cytotoxicity assay, HepG2; type: cell-based
Procedure: as §1, §2, §3

[3] = test system: normal adult liver epithelial cells (THLE-2 cells); assay: MTT cytotoxicity against normal cells; type: cell-based; conditions: Homo sapiens
Procedure: as §2, §3

VEGFR-2 = VEGFR-2 level in HepG2 cells by ELISA; type: cell-based, human; conditions: VEGFR-2 concentration in HepG2 cells after treatment; control 1773 ± 15.01; mean ± SEM of three experiments
Procedure: In vitro VEGFR-2 concentration was evaluated using Enzyme-Linked Immunosorbent Assay (ELISA) kit (Cat. NO. EK0544) (AVIVA System Biology, USA) according to manufacturer instructions.

[4] = parameters: method as in PMID 33707933; conditions: 200 mg once daily, patients with advanced solid tumours; cited from earlier work
[5] = parameters: method as in PMID 25895472; conditions: cited from earlier work
HepG2 cells [6] = assay: Cell cycle analysis by flow cytometry (propidium iodide); type: cell-based, human; conditions: HepG2, 8.8 µM, 48 h
Procedure: As a control, HepG2 cells were not treated with compound 5.
The effect of compound 5 on the cell cycle phases was investigated using propidium iodide staining and flow cytometric analysis according to the cell cycle kit (PN C03551). Briefly, HepG2 cells were allowed to grow in […], then treated with compound 5 for 48 h. After that, the cells were harvested and cell fixation was performed, cells were centrifuged at 2000 rpm for 5 min then, the supernatant was aspirated. The pellet of fixed cells was resuspended in a 0.5 ml cell cycle kit, vortexed, and incubated at 25 °C for 15 min. Finally, DNA was stained with 50 µg/ml propidium iodide for 30 min. Flow cytometric analysis of cell cycle performed on a COULTER® EPICS® XL™ Flow Cytometer (USA)[67–70].

HepG2 cells [7] = assay: Annexin-V/propidium iodide apoptosis assay; type: cell-based, human; conditions: HepG2, 8.8 µM, 48 h, mean ± SEM of three experiments
Procedure: The apoptosis induced by compound 5 was quantified using an Annexin-V/propidium iodide (PI) staining assay. Compound 5 was applied to HepG2 cells at a concentration of 8.8 µM.
To assess the effect of compound 5 on cell apoptosis, Annexin V–FITC Kit was used according to the kit protocol (PN IM3546), followed by flow cytometric analysis. In brief, HepG2 cells were allowed to grow in […], after that treated for 48 h. then, washed in phosphate-buffered saline and suspended to 5 × 10^5–5 × 10^6 cells/mL in 1X binding buffer. Then we added to 100 µL of the cell suspensions, 5 µL of dissolved PI, and 1 µL of annexin VFITC solution and incubated in the dark for 15 min. Next to that, we added 400 µL of ice-cold 1X binding buffer and mixed gently. Apoptotic cells were determined by flow cytometric analysis on a COULTER® EPICS® XL™ Flow Cytometer (USA)[67]^,[71]^,[72].

caspase-3 = assay: Caspase-3 determination by ELISA; type: cell-based, human; conditions: HepG2, 8.8 µM, 24 h
Procedure: To test the effect of the synthesised compounds on caspase-3 levels, the most promising member 5, at a concentration of 8.8 µM, was applied to the most sensitive cells (HepG2) for 24 h.
The effect of compound 5 on the Caspase-3 level was assessed using an ELISA kit (Catalog # KHO1091) according to manufacturer instructions.

[8] = MCF7, MTT assay, mean ± SEM of at least three experiments, read-out: IC50 MCF-7
[9] = HepG2, MTT assay, mean ± SEM of at least three experiments, read-out: IC50 HepG2
[10] = THLE-2, normal liver epithelial cells, MTT, mean ± SEM of at least three experiments, read-out: THLE-2 IC50

Row | Structure (SMILES) | IC50 [1, 8] | IC50 [2, 9] | VEGFR-2 (pg/ml) HepG2 (VEGFR-2) | IC50 ([1]; MCF7, read-out: IC50 MCF-7) | IC50 ([2]; HepG2, read-out: IC50 HepG2) | also measured
1 | COc1ccc2cc(C(C)c3nnc(SCC(=O)Nc4ccccc4C)o3)ccc2c1 (stereo not drawn) [Compound 7, 2-{[5-(1-(6-Methoxynaphthalen-2-yl)ethyl)-1,3,4-oxadiazol-2-yl]thio}-N-(o-tolyl)acetamide] | 13.6 ± 1.09 µM | 12.5 ± 1.09 µM |  |  |  | 
2 | COc1ccc2cc(C(C)c3nnc(SCC(=O)Nc4c(Cl)cccc4Cl)o3)ccc2c1 (stereo not drawn) [Compound 15, N-(2,6-Dichlorophenyl)-2-{[5-(1-(6-methoxynaphthalen-2-yl)ethyl)-1,3,4-oxadiazol-2-yl]thio}acetamide] | 9.8 ± 0.46 µM | 8.4 ± 0.72 µM | 864.5 pg/mL and 864.5 ± 5.92 pg/mL |  |  | IC50 [3, 10]: 34.9 ± 1.86 µM
3 | COc1ccc2cc(C(C)c3nnc(SCC(=O)Nc4ccc(Cl)cc4Cl)o3)ccc2c1 (stereo not drawn) [Compound 14, N-(2,4-Dichlorophenyl)-2-{[5-(1-(6-methoxynaphthalen-2-yl)ethyl)-1,3,4-oxadiazol-2-yl]thio}acetamide] |  |  |  | 11.2 ± 0.69 µM | 10.4 ± 0.81 µM | 
4 | CNC(=O)c1cc(Oc2ccc(NC(=O)Nc3ccc(Cl)c(C(F)(F)F)c3)cc2)ccn1 [Sorafenib, reference compound] | 10.8 ± 1.01 µM | 10.2 ± 0.97 µM |  |  |  | IC50 [3, 10]: 27.8 ± 1.74 µM
5 | Cc1[nH]c(/C=C2\C(=O)Nc3ccc(F)cc32)c(C)c1C(=O)N[C@H]1CCN(C(=O)N(C)C)C1 [Vorolanib] |  |  |  |  |  | safety profile [4]: acceptable safety profile
6 | COc1ccc2cc([C@H](C)c3nnc(SCC(=O)Nc4cccc(C)c4)o3)ccc2c1 [Compound 8, 2-{[5-(1-(6-Methoxynaphthalen-2-yl)ethyl)-1,3,4-oxadiazol-2-yl]thio}-N-(m-tolyl) acetamide] | 10.4 ± 0.92 µM | 9.5 ± 0.87 µM | 583.7 pg/mL and 583.7 ± 1.93 pg/mL |  |  | IC50 [3, 10]: 16.7 ± 0.73 µM
7 | COc1ccc2cc([C@H](C)c3nnc(SCC(=O)Nc4ccccc4[N+](=O)[O-])o3)ccc2c1 [Compound 16, 2-{[5-(1-(6-Methoxynaphthalen-2-yl)ethyl)-1,3,4-oxadiazol-2-yl]thio}-N-(2-nitrophenyl) acetamide] |  |  | 834.9 pg/mL and 834.9 ± 5.17 pg/mL | 9.8 ± 0.8 µM | 8.7 ± 0.72 µM | IC50 ([3]; THLE-2, read-out: THLE-2 IC50): 29.7 ± 2.23 µM
8 | COc1cccc(NC(=O)CSc2nnc(C(C)c3ccc4cc(OC)ccc4c3)o2)c1 (stereo not drawn) [Compound 11, 2-{[5-(1-(6-Methoxynaphthalen-2-yl)ethyl)-1,3,4-oxadiazol-2-yl]thio}-N-(3-methoxyphenyl)acetamide] | 11.4 ± 0.81 µM | 10.7 ± 0.58 µM |  |  |  | 
9 | COc1ccc2cc(C(C)c3nnc(SCC(=O)Nc4ccc(C)cc4)o3)ccc2c1 (stereo not drawn) [Compound 9, 2-{[5-(1-(6-Methoxynaphthalen-2-yl)ethyl)-1,3,4-oxadiazol-2-yl]thio}-N-(p-tolyl)acetamide] |  |  |  | 83.5 ± 7.79 µM | 83.7 ± 6.52 µM | 
10 | COc1ccc2cc(C(C)c3nnc(SCC(=O)Nc4ccccc4)o3)ccc2c1 (stereo not drawn) [Compound 6, 2-{[5-(1-(6-Methoxynaphthalen-2-yl)ethyl)-1,3,4-oxadiazol-2-yl]thio}-N-phenylacetamide] | 13.2 ± 1.12 µM | 12.3 ± 0.87 µM |  |  |  | 
11 | COc1ccc2cc(C(C)c3nnc(SCC(=O)Nc4ccc([N+](=O)[O-])cc4O)o3)ccc2c1 (stereo not drawn) [Compound 18, N-(2-Hydroxy-4-nitrophenyl)-2-{[5-(1-(6-methoxynaphthalen-2-yl)ethyl)-1,3,4-oxadiazol-2-yl]thio}acetamide] | 9.4 ± 0.64 µM | 8.7 ± 0.75 µM | 1004 pg/mL and 1004 ± 5.49 pg/mL |  |  | IC50 [3, 10]: 28.6 ± 2.1 µM
12 | COc1ccc2cc(C(C)c3nnc(SCC(=O)Nc4c(C)cccc4C)o3)ccc2c1 (stereo not drawn) [Compound 10, N-(2,6-Dimethylphenyl)-2-{[5-(1-(6-methoxynaphthalen-2-yl)ethyl)-1,3,4-oxadiazol-2-yl]thio}acetamide] | 12.5 ± 0.74 µM | 11.8 ± 1.04 µM |  |  |  | 
13 | COc1cc2nccc(Oc3ccc(NC(=O)Nc4cc(C)on4)c(Cl)c3)c2cc1OC [Tivozanib] |  |  |  |  |  | half-life [5]: 96 h
14 | COc1ccc2cc([C@H](C)c3nnc(SCC(=O)Nc4ccc([N+](=O)[O-])cc4)o3)ccc2c1 [Compound 17, 2-{[5-(1-(6-Methoxynaphthalen-2-yl)ethyl)-1,3,4-oxadiazol-2-yl]thio}-N-(4-nitrophenyl) acetamide] |  |  | 1067 pg/mL and 1067 ± 4.91 pg/mL | 10.4 ± 0.82 µM | 9.2 ± 0.76 µM | IC50 ([3]; THLE-2, read-out: THLE-2 IC50): 22.8 ± 1.22 µM
15 | COc1ccc2cc(C(C)c3nnc(SCC(=O)NC4CCCCC4)o3)ccc2c1 (stereo not drawn) [Compound 12, N-Cyclohexyl-2-{[5-(1-(6-methoxynaphthalen-2-yl)ethyl)-1,3,4-oxadiazol-2-yl]thio}acetamide] |  |  |  | 25.5 ± 2.02 µM | 24.6 ± 2.81 µM | 
16 | COc1ccc2cc(C(C)c3nnc(SCC(=O)Nc4ccc(Cl)cc4)o3)ccc2c1 (stereo not drawn) [Compound 13, N-(4-Chlorophenyl)-2-{[5-(1-(6-methoxynaphthalen-2-yl)ethyl)-1,3,4-oxadiazol-2-yl]thio}acetamide] |  |  |  | 11.4 ± 0.99 µM | 10.5 ± 0.93 µM | 
17 | COc1ccc2cc(C(C)c3nnc(SCC(=O)NCc4ccccc4)o3)ccc2c1 (stereo not drawn) [Compound 5, N-Benzyl-2-{[5-(1-(6-methoxynaphthalen-2-yl)ethyl)-1,3,4-oxadiazol-2-yl]thio}acetamide] | 9.7 ± 0.75 µM | 8.8 ± 0.69 µM | 610.4 pg/mL and 610.4 ± 3.46 pg/mL |  |  | IC50 [3, 10]: 33.7 ± 1.35 µM; percentage of cells in Pre-G1 phase (HepG2 cells [6]; control 1.76%): 34.12%; percentage of cells in S phase (HepG2 cells [6]; control 27.59%): 42.05%; percentage of cells in G0/G1 phase (HepG2 cells [6]; control 51.31%): 43.91%; Apoptosis (%) (HepG2 cells [7]; control 0.51 ± 0.03): 22.86% and 22.86 ± 1.28 %; Necrosis (%) (HepG2 cells [7]; control 1.25 ± 0.08): 11.26 ± 0.77 %; increase in the level of caspase-3 compared to control cells (caspase-3): 5.61 fold
